From EP1068199B1, “N-ARYLOXYETHYL-INDOLY-ALKYLAMINES FOR THE TREATMENT OF DEPRESSION” (Wyeth, priority 1998, dated 1999)

Tests used:
serotonin transporter = target: T1, serotonin transporter (Rattus norvegicus, UniProt P31652); assay: Serotonin transporter affinity, 3H-paroxetine binding to frontal cortical membranes; parameters: species or system male Sprague-Dawley rats; details: read-out: ST (Ki, nM,)
T1 construct: frontal cortical membranes prepared from male Sprague-Dawley rats; from tissue; host or cells: rat frontal cortex membranes (male Sprague-Dawley)
Procedure: Briefly, frontal cortical membranes prepared from male Sprague-Dawley rats were incubated with ^3H-paroxetine (0.1 nM) for 60 min at 25°C. […] All reactions are terminated by the addition of ice cold Tris buffer followed by rapid filtration using a Tom Tech filtration device to separate bound from free ^3H-paroxetine.

[1] = target: T2, human 5-HT1A receptor subtype (Homo sapiens, UniProt P08908); assay: 5-HT1A receptor binding, [3H]8-OH-DPAT competition on h5-HT1A.CHO cell membranes; details: [3H]8-OH-DPAT 1.5 nM
T2 construct: expressed in transfected cells
T2 sequence (P08908 1-422): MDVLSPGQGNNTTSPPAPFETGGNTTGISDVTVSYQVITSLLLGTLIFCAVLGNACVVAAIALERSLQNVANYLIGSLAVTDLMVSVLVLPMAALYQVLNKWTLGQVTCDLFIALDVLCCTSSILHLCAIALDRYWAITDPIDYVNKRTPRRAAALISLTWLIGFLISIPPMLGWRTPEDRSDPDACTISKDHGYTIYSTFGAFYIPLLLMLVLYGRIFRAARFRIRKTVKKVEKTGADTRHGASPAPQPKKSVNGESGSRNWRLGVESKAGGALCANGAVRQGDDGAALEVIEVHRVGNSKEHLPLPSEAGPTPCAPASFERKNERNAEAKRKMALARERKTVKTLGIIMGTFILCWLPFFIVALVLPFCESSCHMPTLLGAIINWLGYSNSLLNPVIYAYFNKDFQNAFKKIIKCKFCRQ
Procedure: A stable Chinese hamster ovary cell line expressing the human 5-HT1A receptor subtype (h5-HT1A.CHO cells) was employed throughout this study. Cells were maintained in DMEM supplemented with 10% fetal calf serum, non-essential amino acids and penicillin/ streptomycin.
Cells were grown to 95-100% confluency as a monolayer before membranes were harvested for binding studies. Cells were gently scraped from the culture plates, transferred to centrifuge tubes, and washed twice by centrifugation (2000 rpm for 10 min., 4°C) in buffer (50 mM Tris; pH 7.5). The resulting pellets were aliquoted and placed at -80°C. On the day of assay, the cells were thawed on ice, and resuspended in buffer. Studies were conducted using [^3H]8-OH-DPAT as the radioligand. The binding assay was performed in 96 well microtiter plates in a final total volume of 250 µL of buffer. […] Non-specific binding was determined in the presence of 10 µM 5HT. Saturation analysis was conducted by using [^3H]8-OH-DPAT at concentrations ranging from 0.3-30 nM. Following a 30 minute incubation at room temperature, the reaction was terminated by the addition of ice cold buffer and rapid filtration using a M-96 Brandel Cell Harvester (Gaithersburg, MD) through a GF/B filter presoaked for 30 minutes in 0.5% polyethyleneimine.

5-HT1A cloned receptor = target: T3, 5-HT1A cloned receptor (Homo sapiens, UniProt P08908); assay: [35S]-GTPγS binding assay on 5-HT1A cloned receptor membrane fragments; type: biochemical; details: maximum agonist response defined by excess 8-OH-DPAT
T3 construct: expressed in transfected cells
T3 sequence (P08908 1-422): T2 sequence (P08908 1-422)
Procedure: When needed, membranes were rapidly thawed, centrifuged at 40,000 x g for 10 minutes and resuspended at 4 °C for 10 minutes in assay buffer (25 mM HEPES, 3 mM MgCl2, 100 mM NaCI, 1 mM EDTA, 10 uM GDP, 500 mM DTT, pH 8.0). These membranes were then incubated for 30 min at 30 °C with [^35S]GTPgS (1 nM) in the presence of vehicle, test compound (one to eight concentrations), or excess 8-OH-DPAT to define maximum agonist response. All reactions are terminated by the addition of ice cold Tris buffer followed by rapid filtration using a Tom Tech® filtration device to separate bound from free [^35S]GTPgS.

T1 sequence (P31652 whole entry): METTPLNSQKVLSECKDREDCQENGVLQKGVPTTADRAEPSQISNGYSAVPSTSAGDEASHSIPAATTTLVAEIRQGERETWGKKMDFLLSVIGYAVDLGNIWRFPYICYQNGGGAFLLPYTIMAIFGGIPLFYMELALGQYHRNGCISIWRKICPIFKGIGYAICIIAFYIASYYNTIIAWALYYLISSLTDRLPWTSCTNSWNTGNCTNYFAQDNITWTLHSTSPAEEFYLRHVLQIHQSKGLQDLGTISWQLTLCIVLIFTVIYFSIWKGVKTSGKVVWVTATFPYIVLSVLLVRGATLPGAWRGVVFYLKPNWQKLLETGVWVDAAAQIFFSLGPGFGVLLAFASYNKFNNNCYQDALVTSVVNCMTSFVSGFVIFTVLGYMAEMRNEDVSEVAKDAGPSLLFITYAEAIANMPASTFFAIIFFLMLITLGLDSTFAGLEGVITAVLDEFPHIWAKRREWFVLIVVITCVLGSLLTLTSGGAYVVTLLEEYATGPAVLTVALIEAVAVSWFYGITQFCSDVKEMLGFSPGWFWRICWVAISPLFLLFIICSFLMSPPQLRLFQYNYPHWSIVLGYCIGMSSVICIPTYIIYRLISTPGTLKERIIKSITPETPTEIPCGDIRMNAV

SMILES	Ki (serotonin transporter) [nM]	Ki [1] [nM]	Emax (5-HT1A cloned receptor) [%]
S=c1[nH]c2cccc(OCCNCCCc3c[nH]c4ccccc34)c2[nH]1 [Example 3, 4-{2-[3-(1H-Indol-3-yl)-propylamino]-ethoxy}-1,3-dihydrobenzoimidazole-2-thione]	21	7.75	–
O=C1Cc2c(OCCNCCCc3c[nH]c4ccccc34)ccc(F)c2N1 [Example 6, 7-Fluoro-4-{2-[3-(1H-indol-3-yl)-propylamino]-ethoxy}-1,3-dihydro-indol-2-one]	12	39.1	49.9
O=c1[nH]c2cccc(OCCNCCCc3c[nH]c4ccccc34)c2[nH]1 [Example 2, 4-{2-[3-(1H-Indol-3-yl)-propylamino]-ethoxy}-1,3-dihydrobenzoimidazole-2-one]	2.09	3.17	98.5
